From patent publication US20240262835A1, “PRMT5 INHIBITING COMPOUNDS AND USES THEREOF” (ANTENGENE DISCOVERY LIMITED, priority 2023, published 2024)

Columns and labels:
PRMT5/MEP50 = PRMT5/MEP50 (Homo sapiens (Human), UniProt O14744); assay: MTase-Glo methyl transferase assay (PRMT5 inhibition); format: biochemical; details: 50 nM PRMT5/MEP50, 25 μM SAM, 5 μM Histone H4 peptide (1-21), read-out: IC50 for PRMT5 inhibiting
Procedure: The PRMT5 inhibitory activity of test compounds was determined using the MTase-Glo™ assay (Promega), which monitors the product (S-adenosyl homocysteine or SAH) of methyltransferase reactions. The PRMT5 MTase-Glo assays were conducted in a 384-well white ProxiPlate (PerkinElmer, catalog no.: 6008280) in a total volume of 12 μL. The PRMT5 enzymatic reaction (in 4 μL) contained 50 nM PRMT5/MEP50 (Reaction Biology Corp, catalog no.: HMT-22-148), 25 μM S-adenosyl methionine (SAM, Promega), 5 μM Histone H4 peptide (1-21) (BPS Bioscience, catalog no.: 52018-2) and five-fold serially diluted compounds in a reaction buffer of 50 mM Tris (pH 8.0), 50 mM NaCl, 0.01% Tween 20, 0.01% BSA, and 1 mM DTT. The test compounds were pre-incubated with PRMT5/MEP50 and Histone H4 peptide for 20 minutes at room temperature before the addition of SAM to initiate the PRMT5 reaction. The reaction was allowed to proceed for 1 hour at 37° C. and was terminated by 2 μL of 3× MTase-Glo™ Reagent (Promega) and 150 μM EPZ015666 (Selleck, catalog no.: 1616391-65-1). After a 30-minute incubation at room temperature, 6 μL of MTase-Glo™ Detection Solution (Promega) was added and the plate was incubated at room temperature for an additional 30 minutes. The light signal corresponding to the amount of SAH produced by the PRMT5 reaction was subsequently measured using an Envision multimode reader (PerkinElmer). IC50 and Ki values were obtained by analyzing dose-response curves using GraphPad Prism.

[1] = tested on: HCT116 parental (wild type) cells; assay: HCT116 cell proliferation assay (CTG), parental cells; format: cell-based, human; details: Cell Titer-Glo
Procedure: (§1) Control samples were analyzed in parallel.
(§2) On Day 0, 150 HCT116 parental or HCT116 homozygous MTAP knockout cells were seeded in 96-well plates in McCoy's 5A medium containing 10% fetal bovine serum and pen/strep. And the cells were incubated overnight at 37° C. and 5% CO2.
(§3) On Day 1, cells were treated with 9-point serial dilution of compound, using a top concentration of 50 μM, 1:5 serial dilution steps and, a DMSO-only control. And cells were incubated for 6 days.
(§4) On Day 7, cell viability was measured using a CTG assay Kit (Cell Titer-Glo; Promega, catalog no.: G7573) in accordance with the manufacturer's instructions. Assays plates were read on a EnVision™ Multilabel Reader using the Ultra-Sensitive luminescence model. The data were analyzed by GraphPad Prism 5.0 software, and the dose-effect curve was obtained by fitting the data using nonlinear S-curve regression, from which the IC50 value was calculated.

[2] = tested on: HCT116 homozygous MTAP knockout cells; assay: HCT116 cell proliferation assay (CTG), MTAP knockout cells; format: cell-based, human; details: Cell Titer-Glo
Procedure: as §1, §2, §3, §4

[3] = target: hERG potassium ion channel (Homo sapiens (Human), UniProt Q12809); assay: hERG potassium ion channel inhibition assay (automated patch-clamp, CHO-hERG cells); format: cell-based; details: Qpatch, highest test concentration 40.00 μM
Procedure: Drug-hERG interaction was measured by automated patch-clamp methods, with cisapride as positive control.
1.1 CHO-hERG cells were cultured in 175 cm^2 culture bottle. After the cell density grew to 60-80%, the culture medium was removed, washed with 7 mL of phosphate buffered saline (PBS), and then digested with 3 mL Detachin.
1.2 After the digestion was complete, 7 mL culture solution was added for neutralization, and then centrifuged, the clear solution was sucked, and 5 mL culture solution was added for re-suspension to ensure the cell density was 2˜5×10^6/mL.
The process of single-cell high-impedance sealing and whole-cell pattern formation was all automatically completed by Qpatch instrument. After obtaining whole-cell recording mode, the cell was pinching at −80 millivolts. Before giving a 5-second +40 millivolt depolarization stimulus, a 50-millisecond pre-voltage of −50 millivolts was given first, and then repolarized to −50 millivolts for 5 seconds. Go back to −80 millivolts. This voltage stimulation was applied every 15 seconds, recorded for 2 minutes, then extracellular fluid was given and recorded for 5 minutes, and then the administration process began. The concentration of test compound was given from the lowest test concentration for 2.5 minutes per test concentration. After continuous administration of all concentrations, the positive control 3 μM cisapride was given. At least 2 cells were tested for each concentration (n≥2).
4.1 The compound mother liquor was diluted with DMSO, and 10 μL compound stock solution was added to 20 μL DMSO solution, which was continuously 3-fold diluted to 6 DMSO-concentrations.
4.2 4 μL of test compounds in 6 DMSO-concentrations were added to 396 μL extracellular solution and were 100-fold diluted to 6 intermediate concentrations. Then, 80 μL of test compounds in 6 intermediate concentrations were added to 320 μL extracellular solution and were 5-fold diluted to the final concentration to be tested.
4.3 The highest test concentration was 40.00 μM, and six test concentrations were 40.00, 13.33, 4.44, 1.48, 0.49, 0.16 μM, respectively.
4.5 Entire dilution process for test compound preparation was performed by Bravo instrument.
The experimental data were analyzed by GraphPad Prism 5.0 software.

[4] = In vivo pharmacokinetics assay in mice via IV and PO; parameters: species or system ICR mice; details: IV 1.0 mg/kg
Procedure: Pharmacokinetics assay for test compounds was performed in mice via IV and PO.
Test compound solution was prepared on the day of administration.
Solvent: IV+PO: 5% DMSO+10% Soultol+85% H2O or saline
Species: ICR mice; SPF level.
Source: Beijing Vital River Laboratory Animal Technology Co., Ltd.
Animal selection: Males. No random grouping
Weighed before dosing, calculated dosage according to body weight. For Groups 1-3, the drug was administered intravenously or intragastrically. For Group 4, the drug administered intragastrically.
For Groups 1-3, at 0.083 h, 0.25 h, 0.5 h, 1 h, 2 h, 4 h, 6 h, 8 h, 24 h, after administration. For Group 4, at 2 h and 4 h after administration.
Blood was collected through the cheeks. For each sample, about 0.05 mL of blood was collected and was added heparin sodium or EDTA-2K as anticoagulant, and was placed on wet ice.
The blood samples were collected and placed on ice and was centrifuged within 1 hour (centrifugation: 6000 g, 3 minutes, 2-8° C.) to separate plasma. Plasma samples were stored in a −80° C. refrigerator prior to analysis.
The pharmacokinetic parameters were calculated using Phoenix WinNonlin8.2.0 based on the blood concentration data at different time points, and AUC0-t, AUC0-∞, MRT0-∞, Cmax, Tmax, and T1/2 and mean values and standard deviations thereof were provided.

[5] = human, microsomes
[6] = Liver microsome metabolic stability (LMS) assay, mouse; details: mouse liver microsome 0.5 mg protein/mL, 1 μM, NADPH
[7] = Homo sapiens, HCT-116, 6 days treatment

Sequence of PRMT5/MEP50 (O14744 whole entry): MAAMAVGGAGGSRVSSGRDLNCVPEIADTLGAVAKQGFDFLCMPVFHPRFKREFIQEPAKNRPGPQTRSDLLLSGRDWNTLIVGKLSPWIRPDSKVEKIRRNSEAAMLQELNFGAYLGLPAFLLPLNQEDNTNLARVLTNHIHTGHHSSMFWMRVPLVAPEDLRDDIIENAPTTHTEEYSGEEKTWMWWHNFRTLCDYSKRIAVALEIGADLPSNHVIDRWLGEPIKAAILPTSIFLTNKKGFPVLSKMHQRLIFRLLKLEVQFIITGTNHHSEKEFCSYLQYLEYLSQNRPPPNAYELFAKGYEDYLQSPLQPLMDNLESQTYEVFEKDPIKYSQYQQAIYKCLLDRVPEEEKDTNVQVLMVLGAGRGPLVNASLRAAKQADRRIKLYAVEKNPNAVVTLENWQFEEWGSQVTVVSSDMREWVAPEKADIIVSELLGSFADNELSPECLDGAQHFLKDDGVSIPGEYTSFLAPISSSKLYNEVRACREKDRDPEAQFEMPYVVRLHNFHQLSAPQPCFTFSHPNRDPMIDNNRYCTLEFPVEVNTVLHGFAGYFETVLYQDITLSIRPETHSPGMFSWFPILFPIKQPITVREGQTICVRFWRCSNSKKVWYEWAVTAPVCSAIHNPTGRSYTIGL
Sequence of PRMT5/MEP50 (Q9BQA1 whole entry partner): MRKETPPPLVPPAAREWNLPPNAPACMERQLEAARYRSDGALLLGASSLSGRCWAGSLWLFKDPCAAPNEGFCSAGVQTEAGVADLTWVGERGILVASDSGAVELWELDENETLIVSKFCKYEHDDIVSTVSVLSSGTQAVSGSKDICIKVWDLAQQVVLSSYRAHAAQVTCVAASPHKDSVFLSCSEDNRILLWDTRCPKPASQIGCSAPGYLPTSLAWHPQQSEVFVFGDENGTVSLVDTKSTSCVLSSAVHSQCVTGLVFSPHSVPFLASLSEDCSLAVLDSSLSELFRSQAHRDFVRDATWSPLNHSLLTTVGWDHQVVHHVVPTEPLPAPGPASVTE
Sequence of hERG potassium ion channel (Q12809 whole entry): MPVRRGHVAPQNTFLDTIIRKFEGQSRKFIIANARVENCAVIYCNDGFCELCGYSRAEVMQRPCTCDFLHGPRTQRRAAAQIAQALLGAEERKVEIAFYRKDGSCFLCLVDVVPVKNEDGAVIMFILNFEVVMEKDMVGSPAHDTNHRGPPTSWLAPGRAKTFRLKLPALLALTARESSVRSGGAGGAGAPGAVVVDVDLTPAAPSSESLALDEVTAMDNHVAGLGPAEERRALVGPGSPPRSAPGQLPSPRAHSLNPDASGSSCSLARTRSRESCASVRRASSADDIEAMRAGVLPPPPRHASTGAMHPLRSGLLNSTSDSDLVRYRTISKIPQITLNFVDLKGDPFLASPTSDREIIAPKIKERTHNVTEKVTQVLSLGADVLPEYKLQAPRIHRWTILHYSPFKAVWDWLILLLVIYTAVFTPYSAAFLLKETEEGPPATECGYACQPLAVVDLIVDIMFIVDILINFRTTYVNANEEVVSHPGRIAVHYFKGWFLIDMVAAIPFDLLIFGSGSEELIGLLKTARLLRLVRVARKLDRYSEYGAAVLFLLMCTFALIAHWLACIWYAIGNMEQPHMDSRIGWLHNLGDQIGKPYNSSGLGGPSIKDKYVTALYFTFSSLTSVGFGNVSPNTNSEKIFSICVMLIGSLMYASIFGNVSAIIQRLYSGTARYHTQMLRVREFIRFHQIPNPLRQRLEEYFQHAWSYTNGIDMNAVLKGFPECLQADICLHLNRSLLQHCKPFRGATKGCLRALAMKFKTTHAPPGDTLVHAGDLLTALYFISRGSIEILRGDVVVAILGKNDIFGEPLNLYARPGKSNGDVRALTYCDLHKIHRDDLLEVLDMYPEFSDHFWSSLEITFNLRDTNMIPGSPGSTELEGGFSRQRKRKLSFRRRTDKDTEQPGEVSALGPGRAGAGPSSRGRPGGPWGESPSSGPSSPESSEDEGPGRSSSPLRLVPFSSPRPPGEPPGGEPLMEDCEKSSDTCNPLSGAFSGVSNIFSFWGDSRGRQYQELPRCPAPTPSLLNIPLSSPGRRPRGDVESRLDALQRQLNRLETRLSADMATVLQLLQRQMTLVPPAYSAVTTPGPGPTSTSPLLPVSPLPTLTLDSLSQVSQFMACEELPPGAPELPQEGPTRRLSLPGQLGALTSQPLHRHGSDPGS

| IC50 [2, 7] | Structure (SMILES) | IC50 (PRMT5/MEP50) | IC50 [1, 7] | further results |
| --- | --- | --- | --- | --- |
| – | CN(C(=O)c1ccc2nc(N)c3cncn3c2c1)C1COc2cc(C(F)(F)F)ccc21 (centres unmarked) [Compound 18] | 0.42 µM | – | – |
| – | CN(C(=O)c1ccc2nc(N)c3cncn3c2c1)C1COc2cc(C(F)(F)F)ccc21 (centres unmarked) [Compound 16] | 0.231 µM | – | – |
| 0.073 µM | Cn1ncc(-c2ccc3c(c2)nc(N)c2cncn23)c1-c1c(F)cc2ccccc2c1C#N [Compound 1] | 0.045 µM | 4.37 µM | – |
| 0.017 µM | C[C@H](c1ncccn1)N(Cc1ccc(C(F)(F)F)cn1)C(=O)c1cc2c(cc1F)nc(N)c1cncn12 [Compound 6] | 0.036 µM | 0.23 µM | – |
| 0.181 µM | CN(C(=O)c1cnc2nc(N)c3cncn3c2c1)[C@@H]1COc2cc(C(F)(F)F)ccc21 [Compound 13] | 0.04 µM | 4.57 µM | – |
| 0.012 µM | C[C@H]1CC[C@H](c2ccc3c(c2)CCC(=O)N3)N(C(=O)c2ccc3nc(N)c4cncn4c3c2)C1 [Compound 4] | 0.028 µM | 0.105 µM | – |
| 0.04 µM | CN(C(=O)c1ccc2nc(N)c3cncn3c2c1)C1COCc2cc(C(F)(F)F)ccc21 (centres unmarked) [Compound 23] | 0.031 µM | 5.35 µM | – |
| – | CN(C(=O)c1ccc2nc(N)c3cncn3c2c1)C1COc2cc(C(F)(F)F)ccc21 (centres unmarked) [Compound 15] | 0.016 µM | – | IC50 ([1]; 6 days treatment): 5.34 µM; IC50 ([2]; 6 days treatment): 0.037 µM; IC50 [3]: 5.58 µM |
| 0.234 µM | [2H]C([2H])([2H])N(C(=O)c1ccc2nc(N)c3cncn3c2c1)C1COc2cc(OC(F)F)ccc21 (centres unmarked) [Compound 37] | 0.029 µM | 13.8 µM | – |
| 0.158 µM | Cn1ncc(-c2ccc3c(c2)nc(N)c2cncn23)c1-c1c(F)c(Cl)cc(OC2CC2)c1C#N [Compound 2] | 0.045 µM | 5.72 µM | – |
| 0.156 µM | C[C@H](c1ncccn1)N(Cc1ccc(C(F)(F)F)cn1)C(=O)c1ccc2nc(N)c3cncn3c2c1 [Compound 3] | 0.024 µM | 16 µM | – |
| – | CN(C(=O)c1cc2c(cn1)nc(N)c1cncn12)C1CC(F)(F)c2cc(C(F)(F)F)ccc21 (centres unmarked) [Compound 25] | 0.167 µM | – | – |
| – | CN(C(=O)c1cc2c(cn1)nc(N)c1cncn12)C1COc2cc(C(F)(F)F)ccc21 (centres unmarked) [Compound 20] | 0.455 µM | – | – |
| 0.483 µM | CN(C(=O)c1ccc2nc(N)c3cncn3c2c1)C1COc2nc(C(F)(F)F)ccc21 (centres unmarked) [Compound 28] | 0.037 µM | > 50 µM | – |
| – | CN(C(=O)c1cc2c(cn1)nc(N)c1cncn12)C1COc2cc(C(F)(F)F)ccc21 (centres unmarked) [Compound 22] | 1.15 µM | – | – |
| – | CN(C(=O)c1cc2c(cn1)nc(N)c1cncn12)C1CC(F)(F)c2cc(C(F)(F)F)ccc21 (centres unmarked) [Compound 27] | 1.69 µM | – | – |
| 0.033 µM | C[C@H](c1ncccn1)N(Cc1ccc(C(F)(F)F)cn1)C(=O)c1cc2c(cn1)nc(N)c1cncn12 [Compound 10] | 0.054 µM | 0.495 µM | – |
| 0.377 µM | CN(C(=O)c1cc2c(cn1)nc(N)c1cncn12)C1COc2nc(C(F)(F)F)ccc21 (centres unmarked) [Compound 29] | 0.037 µM | 21.9 µM | – |
| – | CN(C(=O)c1cc2c(cn1)nc(N)c1cncn12)[C@@H]1CC(F)(F)c2cc(C(F)(F)F)ccc21 [Compound 26] | 0.034 µM | – | IC50 ([1]; 6 days treatment): 6.59 µM; IC50 ([2]; 6 days treatment): 0.064 µM; IC50 [3]: 13.6 µM; Cl [4]: 10.5 mL/min/kg; T1/2 of LMS, H [5]: 2.32 h; T1/2 of LMS, M [6]: 1.98 h |
| 0.138 µM | C[C@H](c1ncccn1)N(Cc1ccc(C(F)(F)F)cn1)C(=O)c1ccc2nc(N)n3cncc3c2c1 [Compound 5] | 0.026 µM | 1.58 µM | – |
| 0.286 µM | CN(C(=O)c1ccc2nc(N)c3cncn3c2c1)C1COc2cc(C(F)(F)F)ncc21 (centres unmarked) [Compound 32] | 0.025 µM | 8.09 µM | – |
| 4.02 µM | CN(C(=O)c1ccc2nc(N)c3cncn3c2c1)C1COc2cc(C(F)(F)F)cnc21 (centres unmarked) [Compound 30] | 0.089 µM | > 50 µM | – |

| Structure (SMILES) | IC50 [2, 7] | IC50 (PRMT5/MEP50) | IC50 [1, 7] | further results |
| --- | --- | --- | --- | --- |
| CN(C(=O)c1cc2c(cn1)nc(N)c1cncn12)C1COc2cc(C(F)(F)F)cnc21 (centres unmarked) [Compound 31] | 1.5 µM | 0.096 µM | 9.58 µM | – |
| [2H]C([2H])([2H])N(C(=O)c1cc2c(cn1)nc(N)c1cncn12)C1COc2cc(C(F)(F)F)c(F)cc21 (centres unmarked) [Compound 35] | 0.07 µM | 0.087 µM | 3.21 µM | – |
| [2H]C([2H])([2H])N(C(=O)c1cc2c(cn1)nc(N)c1cncn12)C1COc2c1ccc(C(F)(F)F)c2F (centres unmarked) [Compound 34] | 0.364 µM | 0.07 µM | 14 µM | – |
| [2H]C([2H])([2H])N(C(=O)c1cc2c(cn1)nc(N)c1cncn12)C1COc2cc(C(F)(F)F)cc(F)c21 (centres unmarked) [Compound 36] | 0.11 µM | 0.053 µM | 9.62 µM | – |
| CN(C(=O)c1ccc2nc(N)c3cncn3c2c1)C1COc2cc(C(F)(F)F)ccc21 (centres unmarked) [Compound 11] | 0.064 µM | 0.051 µM | 7.68 µM | – |
| CN(C(=O)c1cc2c(cn1)nc(N)c1cncn12)C1COc2cc(C(F)(F)F)ncc21 (centres unmarked) [Compound 33] | 0.98 µM | 0.051 µM | 18 µM | – |
